Results: PMC6749325, “Hybrids of Cinchona Alkaloids and Bile Acids as Antiparasitic Agents Against Trypanosoma cruzi” (Molecules, 2019)
≈ marks a conversion by molar mass, not a printed value.

Experiments:
[1] = test system: T. cruzi CL Brener trypomastigotes; experiment: Trypomastigote IC50 estimation, CL Brener strain; assay type: cell-based, Trypanosoma cruzi; conditions: for IC50: Trypanosoma cruzi, 24 h; for IC50 / T. cruzi CL Brener IC50: trypomastigotes, 24 h incubation, IC50 ± SD (n = 3); for Selectivity NRK/T. cruzi (SI): IC50NRK/IC50 parasite, CL Brener trypomastigotes
Description: (§1) The NRK and Vero cell lines were routinely maintained in DMEM (Gibco) supplemented with 10% SFB (Natocor) and Penicillin/Streptomicin (100 Units/0.1mg/mL, Sigma) at 37 °C and 5% CO2 atmosphere. The trypomatigotes of T. cruzi strains CL Brener, Y, and RA were routinely maintained in Vero cells cultured in DMEM supplemented with 4% SFB and Penicillin/Streptomicin. The trypomastigotes of each strain were purified from infected Vero cells supernatants and used in the different assays.
(§2) 2 × 10^6/mL trypomastigotes were incubated with different concentrations of the hybrids, control drug or vehicle, by triplicate at 37 °C and 5% CO2 for 24 h. Next, trypomastigotes were counted in a Neubauer chamber. The IC50 ± SD (n = 3) were estimated using the “Dose–Response” module in Graphpad Prism.

[2] = test system: T. cruzi RA (DTU VI) trypomastigotes; experiment: Trypomastigote IC50 estimation, RA strain; assay type: cell-based, Trypanosoma cruzi; conditions: 24 h incubation; for IC50: Trypanosoma cruzi, 24 h
Description: as §1, §2

[3] = test system: T. cruzi Y (DTU II) trypomastigotes; experiment: Trypomastigote IC50 estimation, Y strain; assay type: cell-based, Trypanosoma cruzi; conditions: 24 h incubation; for IC50: Trypanosoma cruzi, 24 h
Description: as §1, §2

[4] = test system: NRK cells; experiment: NRK cell IC50 estimation (cytotoxicity, crystal violet); assay type: cell-based; conditions: 48 h incubation; for IC50: Rattus norvegicus, NRK, 48 h
Description: as §1
1 × 10^5/mL NRK cells were grown overnight in a 96 multi-well plate. The culture medium was replaced by a culture medium containing increasing concentrations of hybrids, control drugs or vehicles, and cells incubated at 37 °C and 5% CO2 for 48 h. Next, cells were washed, fixed for 10 min with cold methanol (Sintorgan), and stained with violet crystal (Sigma 0.5% in methanol). After an exhaustive wash, cells were dried overnight. 10% acetic acid (Biopack) was added to each well, and the absorbance measured at 600 nm. Similarly, a standard curve was prepared (absorbance vs. increasing concentrations of NRK cells) to estimate the NRK IC50 using Graphpad Prism.

[5] = test system: T. brucei; parameters: method as in PMID 23816880; conditions: compared with the commercial drug suramin; cited from earlier work
[6] = test system: intracellular amastigotes of the Y strain; experiment: Amastigote count in infected NRK cells; assay type: cell-based, Trypanosoma cruzi; conditions: hybrid at trypomastigote IC50 for the Y strain, 48 h, compared to untreated infected cells
Description: Not only the genetic diversity among strains should be taken into account while searching for new drugs. Differential susceptibility of the different life cycle stages of the parasite within the same strain [18] should be also considered. In this regard, Bz and Nf effectiveness against axenic epimastigotes and the intracellular stages of T. cruzi have been already reported. […] More importantly, given that in the chronic phase of Chagas disease, current chemotherapy is not efficient and that parasitemia is usually low, performing new drug screenings on the intracellular replicative stage of the parasite appears to be the better approach. To confirm their anti-parasitic activity, nine of the hybrids were evaluated against intracellular amastigotes of the Y strain at the IC50 found for trypomastigotes of the same strain. Briefly, trypomastigotes were incubated with NRK cells and left to infect for two hours. […] Forty-eight hours post infection, cells were fixed and stained, and amastigotes/100 cells were calculated.
Infections were performed as previously described. […] After 48 h of incubation, cells were fixed with 4% formalin, stained with DAPI and photographed in a fluorescence microscope (Olympus). The amastigotes/100 cells were determined counting 1000 cells from each well (3000 cells/compound) using the ImageJ cell counter plugin. […]

[7] = test system: trypomastigotes of the Y strain released from infected NRK cells; experiment: Trypomastigote release assay; assay type: cell-based, Trypanosoma cruzi; conditions: 72 hours of treatment then drug-free medium, vs non-treated control
Description: To fully eliminate the intracellular parasite, a trypanocidal drug action is ideally desired. For trypanostatic drugs, a longer chemotherapy is required to allow the elimination of the intracellular parasite, since the anti-parasitic effect could be reversed upon removal of the drug. In order to characterize the antiparasitic features of the hybrids, our strategy was to remove the hybrids from the medium of infected NRK cells and let the infection develop. In this approach, after the two hour infection of NRK cells with trypomastigotes of the Y strain, compounds were added and left for 72 hours before being replaced with fresh medium without drugs. Six days post infection, the trypomastigotes released to the supernatant were quantified. […]
NRK cells were cultured and treated as described in Section 4.1. […] At day 6 pi, the released trypomastigotes in the supernatant of infected were counted using a Neubauer chamber.
In all cases, 3 independent experiments were done by triplicate. […] The mean ± SD of amastigotes/100 cells or trypomastigote released were calculated and analyzed with one-way ANOVA with Dunnett posttest performed with Graphpad Prism software.

## O=C(Cn1ccnc1[N+](=O)[O-])NCc1ccccc1 [Bz, benznidazole, reference compound]
[1]
  IC50: 2.5 ± 0.01 µg/mL (≈ 9.61 µM)
[2]
  IC50: 2.5 ± 0.32 µg/mL (≈ 9.61 µM)
[3]
  IC50: ≥ 15 µg/mL

## C=CC1CN2CCC1CC2C(O)c1cc(CCC(C)C2CCC3C4CCC5CC(OC(C)=O)CCC5(C)C4CCC23C)nc2ccc(OC)cc12 (stereo not drawn) [Hybrid 4a]
[1]
  Selectivity NRK/T. cruzi (SI): 2.20
  T. cruzi CL Brener IC50: 0.64 ± 0.15 µg/mL
[4]
  NRK Cells IC50: 1.41 ± 0.13 µg/mL

## C=CC1CN2CCC1CC2C(O)c1cc(CCC(C)C2CCC3C4C(OC(C)=O)CC5CC(OC(C)=O)CCC5(C)C4CCC23C)nc2ccc(OC)cc12 (stereo not drawn) [Hybrid 4b]
[1]
  Selectivity NRK/T. cruzi (SI): 4.89
  IC50: 0.8 ± 0.13 µg/mL (≈ 1.06 µM)
[4]
  IC50: 3.91 ± 0.29 µg/mL (≈ 5.18 µM)

## C=CC1CN2CCC1CC2C(O)c1cc(CCC(C)C2CCC3C4CCC5CC(OC(C)=O)CCC5(C)C4CCC23C)nc2ccc(OC)cc12 (stereo not drawn) [Hybrid 4c]
[1]
  Selectivity NRK/T. cruzi (SI): 15.30
  IC50: 1.08 ± 0.23 µg/mL (≈ 1.55 µM)
[4]
  NRK Cells IC50: 16.53 ± 0.18 µg/mL
[3]
  IC50: ≥ 1 µg/mL

## C=CC1CN2CCC1CC2C(O)c1cc(CCC(C)C2CCC3C4C(OC(C)=O)CC5CC(OC(C)=O)CCC5(C)C4CCC23C)nc2ccc(OC)cc12 (stereo not drawn) [Hybrid 4d]
[1]
  Selectivity NRK/T. cruzi (SI): 4.58
  T. cruzi CL Brener IC50: 0.72 ± 0.07 µg/mL
[4]
  NRK Cells IC50: 3.30 ± 0.08 µg/mL
[5]
  trypanocidal activity against T. brucei, IC50: in the same range as the commercial drug suramin

## C=CC1CN2CCC1CC2C(O)c1cc(CCC(C)C2CCC3C4CCC5CC(OC(C)=O)CCC5(C)C4CCC23C)nc2ccccc12 (stereo not drawn) [Hybrid 4e]
[1]
  Selectivity NRK/T. cruzi (SI): 6.46
  IC50: 1.16 ± 0.15 µg/mL (≈ 1.74 µM)
[4]
  IC50: 7.5 ± 0.29 µg/mL (≈ 11.2 µM)

## C=CC1CN2CCC1CC2C(O)c1cc(CCC(C)C2CCC3C4C(OC(C)=O)CC5CC(OC(C)=O)CCC5(C)C4CCC23C)nc2ccccc12 (stereo not drawn) [Hybrid 4f]
[1]
  Selectivity NRK/T. cruzi (SI): 13.04
  IC50: 0.51 ± 0.06 µg/mL (≈ 0.703 µM)
[4]
  IC50: 6.69 ± 1.51 µg/mL (≈ 9.23 µM)
[2]
  T. cruzi RA (DTU VI) IC50: 0.25 ± 0.10 µg/mL
[3]
  T. cruzi Y (DTU II) IC50: 0.50 ± 0.03 µg/mL
[6]
  Effect on intracellular amastigotes (amastigotes/100 cells): significant reduction in intracellular amastigotes
[7]
  Trypomastigote count in the supernatant of infected cells at day six post infection: significantly lower than non-treated control
[5]
  trypanocidal activity against T. brucei, IC50: in the same range as the commercial drug suramin

## C=CC1CN2CCC1CC2C(O)c1cc(CCC(C)C2CCC3C4CCC5CC(OC(C)=O)CCC5(C)C4CCC23C)nc2ccccc12 (stereo not drawn) [Hybrid 4g]
[1]
  Selectivity NRK/T. cruzi (SI): 9.46
  T. cruzi CL Brener IC50: 1.30 ± 0.01 µg/mL
[4]
  NRK Cells IC50: 12.30 ± 0.81 µg/mL
[2]
  IC50: 1.1 ± 0.21 µg/mL (≈ 1.65 µM)
[3]
  IC50: 3.05 ± 0.71 µg/mL (≈ 4.57 µM)

## C=CC1CN2CCC1CC2C(O)c1cc(CCC(C)C2CCC3C4C(OC(C)=O)CC5CC(OC(C)=O)CCC5(C)C4CCC23C)nc2ccccc12 (stereo not drawn) [Hybrid 4h]
[1]
  Selectivity NRK/T. cruzi (SI): 9.28
  T. cruzi CL Brener IC50: 0.70 ± 0.18 µg/mL
[4]
  NRK Cells IC50: 6.50 ± 0.28 µg/mL
[2]
  T. cruzi RA (DTU VI) IC50: 1.50 ± 0.50 µg/mL
[3]
  T. cruzi Y (DTU II) IC50: ≥2.00 µg/mL
[5]
  trypanocidal activity against T. brucei, IC50: in the same range as the commercial drug suramin

## C=CC1CN2CCC1CC2C(O)c1cc(CCC(C)C2CCC3C4CCC5CC(O)CCC5(C)C4CCC23C)nc2ccc(OC)cc12 (stereo not drawn) [Hybrid 5a]
[1]
  Selectivity NRK/T. cruzi (SI): 4.12
  T. cruzi CL Brener IC50: 3.71 ± 0.13 µg/mL
[4]
  NRK Cells IC50: 15.30 ± 4.04 µg/mL

## C=CC1CN2CCC1CC2C(O)c1cc(CCC(C)C2CCC3C4C(O)CC5CC(O)CCC5(C)C4CCC23C)nc2ccc(OC)cc12 (stereo not drawn) [Hybrid 5b]
[1]
  Selectivity NRK/T. cruzi (SI): 5.67
  T. cruzi CL Brener IC50: 0.90 ± 0.10 µg/mL
[4]
  NRK Cells IC50: 5.10 ± 0.76 µg/mL
[5]
  trypanocidal activity against T. brucei, IC50: in the same range as the commercial drug suramin

## C=CC1CN2CCC1CC2C(O)c1cc(CCC(C)C2CCC3C4CCC5CC(O)CCC5(C)C4CCC23C)nc2ccc(OC)cc12 (stereo not drawn) [Hybrid 5c]
[1]
  T. cruzi CL Brener IC50: 0.78 ± 0.11 µg/mL
[4]
  IC50: > 11 µg/mL
[2]
  IC50: 0.79 ± 0.19 µg/mL (≈ 1.21 µM)
[3]
  IC50: ≥ 2 µg/mL

## C=CC1CN2CCC1CC2C(O)c1cc(CCC(C)C2CCC3C4C(O)CC5CC(O)CCC5(C)C4CCC23C)nc2ccc(OC)cc12 (stereo not drawn) [Hybrid 5d]
[1]
  Selectivity NRK/T. cruzi (SI): 3.98
  T. cruzi CL Brener IC50: 0.40 ± 0.05 µg/mL
[4]
  NRK Cells IC50: 1.59 ± 0.54 µg/mL
[5]
  trypanocidal activity against T. brucei, IC50: in the same range as the commercial drug suramin

## C=CC1CN2CCC1CC2C(O)c1cc(CCC(C)C2CCC3C4CCC5CC(O)CCC5(C)C4CCC23C)nc2ccccc12 (stereo not drawn) [Hybrid 5e]
[1]
  IC50: 3.96 ± 2.69 µg/mL (≈ 6.34 µM)
[4]
  IC50: > 30 µg/mL

## C=CC1CN2CCC1CC2C(O)c1cc(CCC(C)C2CCC3C4C(O)CC5CC(O)CCC5(C)C4CCC23C)nc2ccccc12 (stereo not drawn) [Hybrid 5f]
[1]
  IC50: 0.34 ± 0.03 µg/mL (≈ 0.53 µM)
[4]
  NRK Cells IC50: 4.02 ± 0.55 µg/mL
[2]
  IC50: 0.31 ± 0.1 µg/mL (≈ 0.484 µM)
[3]
  IC50: 0.65 ± 0.07 µg/mL (≈ 1.01 µM)
[6]
  Effect on intracellular amastigotes (amastigotes/100 cells): significant reduction in intracellular amastigotes
[7]
  Trypomastigote count in the supernatant of infected cells at day six post infection: significantly lower than non-treated control
[5]
  trypanocidal activity against T. brucei, IC50: in the same range as the commercial drug suramin

## C=CC1CN2CCC1CC2C(O)c1cc(CCC(C)C2CCC3C4CCC5CC(O)CCC5(C)C4CCC23C)nc2ccccc12 (stereo not drawn) [Hybrid 5g]
[1]
  Selectivity NRK/T. cruzi (SI): 10.58
  T. cruzi CL Brener IC50: 2.56 ± 0.58 µg/mL
[4]
  NRK Cells IC50: 27.11 ± 4.54 µg/mL
[2]
  IC50: 3.03 ± 0.24 µg/mL (≈ 4.85 µM)
[3]
  IC50: 3.25 ± 0.67 µg/mL (≈ 5.2 µM)

## C=CC1CN2CCC1CC2C(O)c1cc(CCC(C)C2CCC3C4C(O)CC5CC(O)CCC5(C)C4CCC23C)nc2ccccc12 (stereo not drawn) [Hybrid 5h]
[1]
  Selectivity NRK/T. cruzi (SI): 2.23
  T. cruzi CL Brener IC50: 0.30 ± 0.00 µg/mL
[4]
  NRK Cells IC50: 0.67 ± 0.05 µg/mL
[5]
  trypanocidal activity against T. brucei, IC50: in the same range as the commercial drug suramin
